In US20260007758A1, “SO[…]-2 RECEPTOR (SST2R) NON-PEPTIDE DRUG CONJUGATES AND USES THEREOF” (Crinetics Pharmaceuticals, Inc., priority 2024, published 2026):

Legend:
Format in all cases: cell-based
[1] = system: NCI-H524 human small cell lung cancer cells; test: H524 assay: inhibition of cell proliferation (CellTiter Glo); details: 2 h treatment, washout, additional 70 h incubation
Description: NDCs of the present invention were assessed in an in vitro assay evaluating the inhibition of cell proliferation. NCI-H524 (ATCC) human small cell lung cancer cells were plated in 96-well V-bottom plates (Costar) at a concentration of 5,000 cells/well. 24 h later, the cells were treated for 2 h with a NDC. NDC starting dose was 1 uM and two-fold serial dilutions were done for a total of 11 points. After 2 h of treatment, cells were spun down, and the drug-containing media was removed, and fresh complete media was added and used to resuspend the cells, which were spun again. After removal of the media, the cells were resuspended in complete medium and incubated for an additional 70 h. Cell proliferation was assessed using the CellTiter Glo Assay according to the standard protocol (Promega). Luminescence was measured using a TECAN plate reader. Percent proliferation inhibition was calculated using the following formula: % inhibition=(Luminescence Control−Luminescence Treatment)/Luminescence Control*100. IC50 curves were generated using the nonlinear regression analysis (four-parameter) with GraphPad Prism 9.

[2] = molecular target: T1, human somatostatin receptor subtype 2 (Homo sapiens, UniProt P30874); test: Functional assay for SSTR2 agonists (HTRF cAMP); details: CHO-K1 cells stably expressing human SST2; NKH477-stimulated cAMP; 20 min at 37 C; read-out: hSST2 cAMP Avg EC50
T1 construct: expressed in transfected cells
Source text: General overview: All five SSTR subtypes are Gi coupled G-protein coupled receptors (GPCRs) that lead to decreases in intracellular cyclic AMP (cAMP) when activated by an agonist. Therefore, measurement of intracellular cAMP levels can be used to assess whether compounds of the invention are agonists of SSTR subtypes (John Kelly, Troy Stevens, W. Joseph Thompson, and Roland Seifert, Current Protocols in Pharmacology. 2005, 2.2.1-2.2). One example of an intracellular cAMP assay is described below.
Four days prior to the assay, 2,000 Chinese hamster ovary cells (CHO-K1, ATCC #CCL-61) stably expressing the human somatostatin receptor subtype 2 are plated in each well of a 96-well tissue culture-treated plate in Ham's F12 growth media (ThermoFisher #10-080-CM) supplemented with 10% donor bovine serum (Gemini Bio-Products #100-506), 100 U/mL penicillin; 100 ug/mL streptomycin, 2 mM L-glutamine (Gemini Bio-Products #400-110) and 0.2 mg/mL hygromycin B (GoldBio #31282-04-9). The cells are cultured at 37° C., 5% CO2 and 95% humidity. cAMP is measured with HTRF dynamic cAMP assay (Cisbio. #62AM5PEJ) per manufacturer's instructions. […] The cells are incubated for 20 minutes at 37° C. (the final concentration of the compounds of the invention are typically 0-10,000 nM). The cells are treated with 50 μL of lysis buffer (HRTF cAMP kit, Cisbio) and incubated at room temperature for 30 minutes with rotary shaking at 600 rpm, and then diluted with 150 μL of stimulation buffer and shaken for an additional five minutes at 300 rpm. The lysate is transferred to 384-well plates and incubated for 1-24 hours at room temperature, and cAMP accumulation is detected by d2-labeled cAMP and Anti-cAMP-Cryptate. The time-resolved fluorescent signal is read using a m1000 Pro (Tecan) or CLARIOStar (BMG Labtech) microplate reader, where the samples are excited with light at 340 nm and emission light is measured at 620 nm and 665 nm. The data is expressed as a calculation of the fluorescence ratio (665 nm/620 nm). The intracellular cAMP concentrations are calculated by regression to a standard curve and are plotted vs, the concentration of the compounds of the invention. The EC50 of the compounds are calculated using standard methods. All data manipulations are in GraphPad Prism v9 (GraphPad, San Diego, CA).

SST2 = molecular target: T2, SST2 (Homo sapiens, UniProt P30874); test: PathHunter CHO-K1 SST2 Internalization Assay; details: PathHunter CHO-K1 SST2 cells; 90 min at 37 C; luminescence; read-out: Internalization EC50
T2 construct: host or cells: PathHunter CHO-K1 SST2 cells
Description: NDCs of the present invention were assessed in vitro using the human PathHunter CHO-K1 SST2 β-arrestin2 and PathHunter CHO-K1 SST2 Internalization Assays from DiscoverX. The CHO-K cells were seeded in 20 μLs of cell culture medium in a white-walled 384 well tissue culture-compatible plate at a density of 2500 cells/well. After a 48-hour incubation, cells were treated with 5 μLs of a 1:3 serially diluted SST2 NDC prepared at 5× concentration with a final top compound concentration of 10 uM for 90 min at 37 C and in 5% CO2. 11 dilutions were tested as well as one treatment that was compound free. After incubation, the media containing treatments were discarded and 20 μL of a working solution of Beta-Glo from Promega Beta-Go Assay System was added to each well. The plate was then incubated for 60 min at room temperature in the dark. Luminescence was measured using a Tecan plate reader. IC50 curves were generated using the nonlinear regression analysis (four-parameters) with GraphPad Prism 9. Results were the average of duplicates and are corrected for background.

T2 sequence (P30874 whole entry): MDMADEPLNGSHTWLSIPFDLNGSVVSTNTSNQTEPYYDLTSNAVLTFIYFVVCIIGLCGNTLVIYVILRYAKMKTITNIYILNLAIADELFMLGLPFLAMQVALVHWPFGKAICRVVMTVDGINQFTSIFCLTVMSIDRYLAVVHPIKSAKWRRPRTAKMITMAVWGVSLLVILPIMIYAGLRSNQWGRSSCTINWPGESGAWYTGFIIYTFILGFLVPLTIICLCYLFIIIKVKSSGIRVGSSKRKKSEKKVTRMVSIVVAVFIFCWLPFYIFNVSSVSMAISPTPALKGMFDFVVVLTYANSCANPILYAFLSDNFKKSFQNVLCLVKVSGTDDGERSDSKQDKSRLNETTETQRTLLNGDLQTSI
T1 sequence (P30874 whole entry): as above

Row | SMILES | EC50 [1] [nM] | EC50 [2] [nM] | EC50 (SST2) [nM]
1 | CC[C@H](C)[C@@H]([C@@H](CC(=O)N1CCC[C@H]1[C@H](OC)[C@@H](C)C(=O)N[C@H](C)[C@@H](O)c1ccccc1)OC)N(C)C(=O)[C@@H](NC(=O)[C@H](C(C)C)N(C)C(=O)OCc1ccc(NC(=O)[C@H](CCCNC(N)=O)NC(=O)[C@@H](NC(=O)[C@H](CCC(=O)O)NC(=O)CCOCCC(=O)NCCNc2ncc(-c3cc(C)cc(F)c3)c(N3CCC(N)CC3)c2-c2nc3ccc(Cl)cc3[nH]2)C(C)C)c(OCCN)c1)C(C)C [Compound 1] | 15 | 0.25 | 18
2 | CC[C@H](C)[C@@H]([C@@H](CC(=O)N1CCC[C@H]1[C@H](OC)[C@@H](C)C(=O)N[C@H](C)[C@@H](O)c1ccccc1)OC)N(C)C(=O)[C@@H](NC(=O)[C@H](C(C)C)N(C)C(=O)OCc1ccc(NC(=O)[C@H](CCCNC(N)=O)NC(=O)[C@@H](NC(=O)[C@H](CCC(=O)O)NC(=O)CCOCCC(=O)NCCNc2ncc(-c3cc(C)cc(F)c3)c(N3CCC(N)CC3)c2-c2nc3ccc(Cl)cc3[nH]2)C(C)C)cc1C(F)(F)F)C(C)C [Compound 2] | 2500 | 0.57 | 8.6
3 | CC[C@H](C)[C@@H]([C@@H](CC(=O)N1CCC[C@H]1[C@H](OC)[C@@H](C)C(=O)N[C@H](C)[C@@H](O)c1ccccc1)OC)N(C)C(=O)[C@@H](NC(=O)[C@H](C(C)C)N(C)C(=O)OCc1ccc(NC(=O)[C@H](CCCNC(N)=O)NC(=O)[C@@H](NC(=O)[C@H](CCC(=O)O)NC(=O)CCOCCOCCOCCOCCC(=O)NCCNc2ncc(-c3cc(C)cc(F)c3)c(N3CCC(N)CC3)c2-c2nc3ccc(Cl)cc3[nH]2)C(C)C)cc1C(=O)O)C(C)C [Compound 3] | 680 | 0.19 | 6.8
4 | CC[C@H](C)[C@@H]([C@@H](CC(=O)N1CCC[C@H]1[C@H](OC)[C@@H](C)C(=O)N[C@H](C)[C@@H](O)c1ccccc1)OC)N(C)C(=O)[C@@H](NC(=O)[C@H](C(C)C)N(C)C(=O)OCc1ccc(NC(=O)[C@H](CCCNC(N)=O)NC(=O)[C@@H](NC(=O)CCOCCOCCOCCOCCC(=O)NCCNc2ncc(-c3cc(C)cc(F)c3)c(N3CCC(N)CC3)c2-c2nc3ccc(Cl)cc3[nH]2)C(C)C)cc1C(=O)O)C(C)C [Compound 4] | 740 | 0.11 | 3.8
5 | CC[C@H](C)[C@@H]([C@@H](CC(=O)N1CCC[C@H]1[C@H](OC)[C@@H](C)C(=O)N[C@H](C)[C@@H](O)c1ccccc1)OC)N(C)C(=O)[C@@H](NC(=O)[C@H](C(C)C)N(C)C(=O)OCc1ccc(NC(=O)[C@H](CCCNC(N)=O)NC(=O)[C@@H](NC(=O)[C@H](CCC(N)=O)NC(=O)CCOCCC(=O)NCCNc2ncc(-c3cc(C)cc(F)c3)c(N3CCC(N)CC3)c2-c2nc3ccc(Cl)cc3[nH]2)C(C)C)cc1C(=O)O)C(C)C [Compound 5] | 520 | 0.29 | 2.2
6 | CC[C@H](C)[C@@H]([C@@H](CC(=O)N1CCC[C@H]1[C@H](OC)[C@@H](C)C(=O)N[C@H](C)[C@@H](O)c1ccccc1)OC)N(C)C(=O)[C@@H](NC(=O)[C@H](C(C)C)N(C)C(=O)OCc1ccc(NC(=O)[C@H](CCCNC(N)=O)NC(=O)[C@@H](NC(=O)[C@H](CCC(=O)O)NC(=O)CCOCCC(=O)NCCNc2ncc(-c3cc(C)cc(F)c3)c(N3CCC(N)CC3)c2-c2nc3ccc(Cl)cc3[nH]2)C(C)C)c(C(F)(F)F)c1)C(C)C [Compound 6] | 7300 | 0.21 | 3.5
7 | CC[C@H](C)[C@@H]([C@@H](CC(=O)N1CCC[C@H]1[C@H](OC)[C@@H](C)C(=O)N[C@H](C)[C@@H](O)c1ccccc1)OC)N(C)C(=O)[C@@H](NC(=O)[C@H](C(C)C)N(C)C(=O)OCc1ccc(NC(=O)[C@H](CCCNC(N)=O)NC(=O)[C@@H](NC(=O)CCOCCC(=O)NCCNc2ncc(-c3cc(C)cc(F)c3)c(N3CCC(N)CC3)c2-c2nc3ccc(Cl)cc3[nH]2)C(C)C)c(C)c1)C(C)C [Compound 9] | 4.3 | 0.38 | 2.5
8 | CC[C@H](C)[C@@H]([C@@H](CC(=O)N1CCC[C@H]1[C@H](OC)[C@@H](C)C(=O)N[C@H](C)[C@@H](O)c1ccccc1)OC)N(C)C(=O)[C@@H](NC(=O)[C@H](C(C)C)N(C)C(=O)OCc1ccc(NC(=O)[C@H](CCCNC(N)=O)NC(=O)[C@@H](NC(=O)CCOCCC(=O)NCCNc2ncc(-c3cc(C)cc(F)c3)c(N3CCC(N)CC3)c2-c2nc3ccc(Cl)cc3[nH]2)C(C)C)c(OCCN)c1)C(C)C [Compound 10] | 0.76 | 0.21 | 2.7
9 | CC[C@H](C)[C@@H]([C@@H](CC(=O)N1CCC[C@H]1[C@H](OC)[C@@H](C)C(=O)N[C@H](C)[C@@H](O)c1ccccc1)OC)N(C)C(=O)[C@@H](NC(=O)[C@H](C(C)C)N(C)C(=O)OCc1ccc(NC(=O)[C@H](CCCNC(N)=O)NC(=O)[C@@H](NC(=O)CCOCCC(=O)NCCNc2ncc(-c3cc(C)cc(F)c3)c(N3CCC(N)CC3)c2-c2nc3ccc(Cl)cc3[nH]2)C(C)C)c(O[C@@H]2O[C@H](C(=O)NCCNC(=O)CCCCCCCCCCCCCCC(=O)O)[C@@H](O)[C@H](O)[C@H]2O)c1)C(C)C [Compound 53] | 200 | 0.48 | 
10 | CC[C@H](C)[C@@H]([C@@H](CC(=O)N1CCC[C@H]1[C@H](OC)[C@@H](C)C(=O)N[C@H](C)[C@@H](O)c1ccccc1)OC)N(C)C(=O)[C@@H](NC(=O)[C@H](C(C)C)N(C)C(=O)OCc1ccc(NC(=O)[C@H](CCCNC(N)=O)NC(=O)[C@@H](NC(=O)CCCC(=O)N(C)CC(=O)N(C)CC(=O)N(C)CC(=O)NCCNc2ncc(-c3cc(C)cc(F)c3)c(N3CCC(N)CC3)c2-c2nc3ccc(Cl)cc3[nH]2)C(C)C)c(O[C@@H]2O[C@H](C(=O)O)[C@@H](O)[C@H](O)[C@H]2O)c1)C(C)C [Compound 130] | 3800 |  | 
11 | CC[C@H](C)[C@@H]([C@@H](CC(=O)N1CCC[C@H]1[C@H](OC)[C@@H](C)C(=O)N[C@H](C)[C@@H](O)c1ccccc1)OC)N(C)C(=O)[C@@H](NC(=O)[C@H](C(C)C)N(C)C(=O)OCc1ccc(NC(=O)[C@H](C)NC(=O)[C@@H](NC(=O)C[C@@H](N)C(=O)NCCOCCC(=O)NCCNc2ncc(-c3cc(C)cc(F)c3)c(N3CCC(NC)CC3)c2-c2nc3ccc(Cl)cc3[nH]2)C(C)C)c(O[C@@H]2O[C@H](C(=O)O)[C@@H](O)[C@H](O)[C@H]2O)c1)C(C)C [Compound 135] |  | 0.42 | 3.6
12 | CC[C@H](C)[C@@H]([C@@H](CC(=O)N1CCC[C@H]1[C@H](OC)[C@@H](C)C(=O)N[C@H](C)[C@@H](O)c1ccccc1)OC)N(C)C(=O)[C@@H](NC(=O)[C@H](C(C)C)N(C)C(=O)OCc1ccc(O[C@@H]2O[C@H](C(=O)O)[C@@H](O)[C@H](O)[C@H]2O)c(NC(=O)[C@H](CCCNC(N)=O)NC(=O)[C@@H](NC(=O)CCOCCC(=O)NCCNc2ncc(-c3cc(C)cc(F)c3)c(N3CCC(N)CC3)c2-c2nc3ccc(Cl)cc3[nH]2)C(C)C)c1)C(C)C [Compound 248] | 3.2 |  | 
